Test results: patent publication US12510524B2, “Compositions containing cannabinoid analog conjugates and methods of use” (priority 2014, dated 2025)
Several values for one entry are separate records, joined by “and”; a condition that tells them apart may be missing. Equal values may be shown once. Read-outs that look alike come from different tables or passages of the source.

Legend:
DLBCL cancer cell lines = experiment: MTS cell viability assay, DLBCL cell lines as a group; format: cell-based; details: for effect on the viability of DLBCL cancer cell lines: EJ, U2932, CJ and LY19, 72 h incubation, FIGS. 13-16; for IC50: read-out: Average IC50
Protocol: (§1) The effects of SR141716 and VYR206 were analyzed. MTS assays for cell viability (72 h incubation) were performed on diffuse large B-cell lymphoma (DLBCL) cells—LR, MS, RC and DOHH2 (FIGS. 18A-18D) and mantle cell lymphoma (MCL) cells—Jeko, Mino, Rec-1 and JMP1 (FIGS. 19A-19D).

HF cell line = experiment: High throughput screening of cell viability, HF; format: cell-based; details: 72-hour incubation
Protocol: (§2) High throughput screening ([…]) assessment of cell viability in 16 DLBCL (FIGS. 20A and 20B) and 8 MCL (FIG. 20C) cell lines were assessed following treatment a 72-hour incubation of the cell lines with cannabidiol, which was obtained as CBD in a coconut oil extract. Cell viability, 90% of the all cells tested, remained viable in a concentration range of 0-5 μM CBD. Complete cell death was obtained at 25 μM CBD concentration only for two cancer cell lines, HT and EJ (FIG. 20B); 50 μM CBD concentration gave a complete cell death viability in seven cell lines MZ, HF, HB, CJ, MS, Toledo and EJ (FIGS. 20A and 20B).

CJ cell line = experiment: High throughput screening of cell viability, CJ; format: cell-based; details: 72-hour incubation
Protocol: as §2

HT cancer cell line = experiment: High throughput screening of cell viability, HT; format: cell-based; details: 72-hour incubation
Protocol: as §2

EJ cancer cell line = experiment: High throughput screening of cell viability, EJ; format: cell-based; details: 72-hour incubation
Protocol: as §2

cleaved PARP in RC cells = experiment: Immunoblot of apoptosis induction in RC cells; format: cell-based; details: 24 hrs
CB2 receptor expression = experiment: Blot analysis of CB2 expression in DLBCL and MCL cell lines; format: cell-based; details: FIGS. 21B and 21C
Protocol: The effect of different amounts of combinations of VYR206 and CBD on various DLBCL and MCL cell lines were evaluated by immunoblot analysis. Immunoblot analysis of cell lysates from various DLBCL and MCL cell lines was performed to show effects on expression of CBi and CB2 receptors with the expression of β-actin as the control for sample loading (FIGS. 21A-21D), with each cell line identified by respective initials.

Cancer cell line DOHH2 = experiment: High throughput screening of cell viability, DOHH2; format: cell-based; details: lower concentration (0-25 μM)
Protocol: as §2

HB cell line = experiment: High throughput screening of cell viability, HB; format: cell-based; details: 72-hour incubation
Protocol: as §2

[1] = system: cleaved caspase 3 and cleaved PARP in BJAB cells; experiment: Western analysis of apoptosis induction in BJAB cells; format: cell-based; details: 24 hrs
Protocol: No activation of apoptosis in untreated cells (control not shown). […] At 12.5 μM CBD, there was significant apoptosis induction in cleaved PARP expression. The effect of CBD on both cleaved caspase 3 (FIG. 27C) and cleaved PARP expression (FIG. 27D) was analyzed using Western analysis. Expression of the β-actin (FIG. 27E) was used as a control for equal loading.

MT cell line = experiment: High throughput screening of cell viability, MT; format: cell-based; details: 72-hour incubation, read-out: concentration range at which 50% cell viability was reached
Protocol: as §2

LP cell line = experiment: High throughput screening of cell viability, LP; format: cell-based; details: 72-hour incubation, read-out: concentration range at which 50% cell viability was reached
Protocol: as §2

MCA cell line = experiment: High throughput screening of cell viability, MCA; format: cell-based; details: 72-hour incubation, read-out: concentration range at which 50% cell viability was reached
Protocol: as §2

[2] = system: DLBCL (RC) and MCL (Mino) cancer cell lines; experiment: MTS cell viability assay, CBD alone and in combination with chemotherapeutics; format: cell-based; details: at the given amounts, 72 h incubation
Protocol: (§4) The formazan dye is quantified by measuring the absorbance at 490-500 nm.
Cell viability assays (MTS) were performed to determine the viability of DLBCL (RC) and MCL (Mino) cancer cell lines in vitro (72 hour-incubation) in the presence of CB2-agonist—CBD alone and in combination with ibrutinib. Cell viability assays (MTS) were performed to determine the viability of DLBCL (RC) and MCL (Mino) cancer cell lines in vitro (72 h incubation) in the presence of CBD alone and in combination with zanubrutinib (BGB). Cell viability assays (MTS) were performed to determine the viability of DLBCL (RC) and MCL (Mino) cancer cell lines in vitro (72 h incubation) in the presence of CBD alone and in combination with carfilzomib (CFZ). Cell viability assays (MTS) were performed to determine the viability of DLBCL (RC) and MCL (Mino) cancer cell lines in vitro (72 h incubation) in the presence CBD alone and in combination with tumorex (TMX).

MZ cell line = experiment: High throughput screening of cell viability, MZ; format: cell-based; details: 72-hour incubation
Protocol: as §2

Toledo cell line = experiment: High throughput screening of cell viability, Toledo; format: cell-based; details: 72-hour incubation
Protocol: as §2

[3] = system: 16 DLBCL and 8 MCL cell lines; experiment: High throughput screening of cell viability, all cell lines; format: cell-based; details: all cells tested; concentration range 0-5 μM; 72-hour incubation
Protocol: as §2

MS cell line = experiment: High throughput screening of cell viability, MS; format: cell-based; details: 72-hour incubation
Protocol: as §2

[4] = system: mantle cell lymphoma cancer cells (Mino, Jeko, SP53, Maver-1Z138, JMP-1, Rec-1 and PF-1); experiment: High throughput screening of cell viability, MCL cell lines; format: cell-based; details: concentration range from 15 μM to 25 μM; FIG. 20C
Protocol: as §2

[5] = system: U2932 DLBCL cancer cell line
Source text: as §4

[6] = system: mantle cell lymphoma (MCL; 8 cell lines); experiment: Cell viability, 8 MCL cell lines (Example 6); format: cell-based; details: lower-dose 10-40 μM; steep initial slopes especially in Rec-1 and SP-53; FIG. 17C
Protocol: (§3) In Examples 6-8, N4-conjugated compounds were analyzed. The effects of CBi inverse agonist SR141716 and its conjugated form-VYR206 were analyzed using diffuse large B-cell lymphoma (DLBCL; 16 cancer cell lines; FIGS. 17A and 17B) and mantle cell lymphoma (MCL; 8 cell lines; FIGS. 17C and 17D) cancer cells. […] Diffuse large B-cell lymphoma cancer cells were resistant to lower VYR206 concentration (<50 μM) (FIG. 17B). […] Rimonabant by itself has severe adverse effects in patients with high or chronic dosing. Curtailing or modifying the potency may help to reduce adverse effects while still providing a therapeutic effect against cancerous cells.

LR DLBCL cell line = experiment: MTS cell viability assay, LR; format: cell-based; details: for IC50: read-out: IC50 on cell viability
Protocol: as §1

LY-10 DLBCL cell line = experiment: MTS cell viability assay, LY-10; format: cell-based; details: read-out: IC50 on cell viability
Source text: as §4

HF DLBCL cell line = experiment: MTS cell viability assay, HF; format: cell-based; details: read-out: IC50 on cell viability
Source text: as §4

MS DLBCL cell line = experiment: MTS cell viability assay, MS; format: cell-based; details: 72 h
Protocol: as §1

HB DLBCL cell line = experiment: MTS cell viability assay, HB; format: cell-based; details: read-out: IC50 on cell viability
[7] = system: EJ DLBCL cancer cell line; experiment: MTS cell viability assay, EJ; format: cell-based; details: read-out: IC50 on cell viability
Source text: as §4

McA DLBCL cell line = experiment: MTS cell viability assay, McA; format: cell-based; details: 72 h, read-out: IC50 on cell viability
Source text: as §4

RC DLBCL cell line = experiment: MTS cell viability assay, RC; format: cell-based; details: drug concentration 50 μM, 72 h
Protocol: as §1

WP DLBCL cell line = experiment: MTS cell viability assay, WP; format: cell-based; details: read-out: IC50 on cell viability
LP DLBCL cell line = experiment: MTS cell viability assay, LP; format: cell-based; details: read-out: IC50 on cell viability
Source text: as §4

[8] = system: diffuse large B-cell lymphoma (DLBCL; 16 cancer cell lines); experiment: Cell viability, 16 DLBCL cancer cell lines (Example 6); format: cell-based; details: 16 DLBCL cell lines; compared with VYR206; FIG. 17A
Protocol: as §3

Ly-3 DLBCL cell line = experiment: MTS cell viability assay, Ly-3; format: cell-based; details: read-out: IC50 on cell viability
Source text: as §4

[9] = system: LY19 DLBCL cancer cell line; experiment: MTS cell viability assay, LY19; format: cell-based; details: for IC50: read-out: IC50 on cell viability
Source text: as §4

[10] = system: CJ DLBCL cancer cell line; experiment: MTS cell viability assay, CJ; format: cell-based; details: read-out: IC50 on cell viability
Source text: as §4

DOHH2 DLBCL cell line = experiment: MTS cell viability assay, DOHH2; format: cell-based; details: Homo sapiens, DOHH-2, 72 h
Protocol: as §1

[11] = read-out: concentration range at which 50% cell viability was reached

## CN1CCCCC1Cn1cc(C(=O)c2cc([N+](=O)[O-])ccc2I)c2ccccc21 (centres unmarked) [AM 1241]
DLBCL cancer cell lines; MTS
  effect on the viability of DLBCL cancer cell lines: significant effect

## C=C(C)[C@@H]1CCC(C)=C[C@H]1c1c(O)cc(CCCCC)cc1O [CBD, cannabidiol]
HF cell line
  concentration giving complete cell death: 50 µM
CJ cell line
  concentration giving complete cell death: 50 µM
CJ cell line; [11]
  IC50: 15 to 20 µM
HT cancer cell line
  concentration giving complete cell death: 25 µM
EJ cancer cell line
  concentration giving complete cell death: 50 µM and 25 µM
EJ cancer cell line; [11]
  IC50: 15 to 20 µM
Cleaved PARP in RC cells
  concentration with significant apoptosis induction in cleaved PARP expression: 12.5 µM
CB2 receptor expression
  CB2 expression: modulation
Cancer cell line DOHH2
  susceptibility: less susceptible
HB cell line
  concentration giving complete cell death: 50 µM
HB cell line; [11]
  IC50: 15 to 20 µM
[1]
  concentration with significant apoptosis induction in cleaved PARP expression: 12.5 µM
[1]; increasing concentration
  cleaved caspases 3 and cleaved PARP: concentration-dependent increase
MT cell line
  IC50: 15 to 20 µM
LP cell line
  IC50: 15 to 20 µM
MCA cell line
  IC50: 15 to 20 µM
[2]
  viability, agents individually: modest reduction in viability
MZ cell line
  concentration giving complete cell death: 50 µM
MZ cell line; [11]
  IC50: 15 to 20 µM
DLBCL cancer cell lines; LY19 and LR, alone and in combination, MTS, 72 h
  viability response compared with VYR206: generally the same response as VYR206
Toledo cell line
  concentration giving complete cell death: 50 µM
[3]
  cell viability: 90%
MS cell line
  concentration giving complete cell death: 50 µM
[4]
  sensitivity of MCL cancer cells: less sensitive

## CCNC1(C(N)=O)CCN(c2ncnc3c2nc(-c2ccccc2Cl)n3-c2ccc(Cl)cc2)CC1 [CP945,598]
DLBCL cancer cell lines; MTS
  effect on the viability of DLBCL cancer cell lines: significant results depending on the specific cell line

## Cc1c(C(=O)NN2CCCCC2)nn(-c2ccc(Cl)cc2Cl)c1-c1ccc(Cl)cc1 [SR141716, N-(Piperidin-1-yl)-5-(4-chlorophenyl)-1-(2,4-dichlorophenyl)-4-methyl-1H-pyrazole-3-carboxamide]
[5]
  IC50: 26.2 µM
[6]
  cell viability in MCL cell lines: reduction of cell viability
LR DLBCL cell line; 72 h
  IC50: 30.9 µM
LR DLBCL cell line; LR, drug concentration 50 μM, MTS, 72 h
  induction of cell death: < 90%
LY-10 DLBCL cell line; LY10, 72 h
  IC50: 25.1 µM
HF DLBCL cell line; 72 h
  IC50: 32.7 µM
MS DLBCL cell line; read-out: IC50 on cell viability
  IC50: 23.7 µM
MS DLBCL cell line; MS, drug concentration 50 μM, MTS
  induction of cell death: < 90%
HB DLBCL cell line; 72 h
  IC50: 29.4 µM
[7]; 72 h
  IC50: 20.6 µM
McA DLBCL cell line
  IC50: 21.8 µM
RC DLBCL cell line
  induction of cell death: < 90%
WP DLBCL cell line; 72 h
  IC50: 25.5 µM
LP DLBCL cell line; 72 h
  IC50: 27.1 µM
[8]
  cell viability of DLBCL: markedly decreased viability
DLBCL cancer cell lines; MTS
  effect on the viability of DLBCL cancer cell lines: significant results depending on the specific cell line
DLBCL cancer cell lines; LR, MS, RC and DOHH2, MTS, 72 h
  effectiveness on DLBCL, comparison of the two drugs: more effective to DLBCL than VYR206
DLBCL cancer cell lines
  IC50: 24.4 µM
Ly-3 DLBCL cell line; 72 h
  IC50: 25.2 µM
[9]; 72 h
  IC50: 15.2 µM
[9]; LY19, MTS, 72 h incubation
  effect on viability, comparison between cell lines: more potent effect on LY19
[10]; 72 h
  IC50: 13.5 µM
DOHH2 DLBCL cell line
  inhibition at 50 µM: > 50%

## C=C(C)[C@@H]1CCC(C)=C[C@H]1c1c(O)cc(CCCCC)cc1OCCCN1CCCNCCNCCCNCC1 [VYC203, N4-Cannabidiol]
Cleaved PARP in RC cells; 6.25, 12.5, 25 and 50 μM
  cleaved PARP expression: Concentration-dependent increase

## C=CC(=O)N1CCC[C@@H](n2nc(-c3ccc(Oc4ccccc4)cc3)c3c(N)ncnc32)C1 [ibrutinib]
[5]
  IC50: 15 µM
LR DLBCL cell line; LR, MTS, 72 h incubation
  IC50: 20 µM
LY-10 DLBCL cell line; LY10, LY-10, MTS, 72 h incubation
  IC50: 0.5 µM
HF DLBCL cell line; HF, MTS, 72 h incubation
  IC50: 18 µM
HB DLBCL cell line; HB, MTS, 72 h incubation
  IC50: 20 µM
[7]; EJ, MTS, 72 h incubation
  IC50: 30 µM
WP DLBCL cell line; WP, MTS, 72 h incubation
  IC50: 1 µM
LP DLBCL cell line; LP, MTS, 72 h incubation
  IC50: 6 µM
DLBCL cancer cell lines; average over the 13 DLBCL cell lines of Table 5
  IC50: 15.8 µM
Ly-3 DLBCL cell line; Ly-3, MTS, 72 h incubation
  IC50: 20 µM
[9]; LY19, MTS, 72 h incubation
  IC50: 10 µM
[10]; CJ, MTS, 72 h incubation
  IC50: 25 µM
